What was measured:
Test in all cases: area under concentration-response curve (viability) (AUC (a.u.)); higher = less active
Conditions in all cases: 48 h
CU-ACC1 = test system: CU-ACC1
Outline: (§1)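 Three adrenocortical carcinoma cell lines in 1,536-well plates received 23 nL of each library compound at 11 concentrations and were read with CellTiter-Glo after 48 h, with 15 minutes at room temperature before measuring luminescence. Vehicle and empty-well controls served for per-plate normalisation. AC50 and area under the curve were extracted from fitted concentration-response curves, discarding all curve classes other than inhibitory or non-responding.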

NCI-H295R = test system: NCI-H295R
Outline: as §1

CU-ACC2 = test system: CU-ACC2
Outline: as §1

Row | Structure (SMILES) | area under concentration-response curve (CU-ACC1) | area under concentration-response curve (NCI-H295R) | area under concentration-response curve (CU-ACC2)
1 | COc1cc(NC(=O)c2ccc(-c3ccc(Cl)cc3)o2)cc(OC)c1 | 469 | 536 | 562
2 | CCCCNc1ncc2c(-c3ccc(CN4CCN(C)CC4)cc3)cn(C3CCC(O)CC3)c2n1 (configuration not stated) | 513 | 527 | 585
3 | O=C(NCc1ccncc1)C12C[C@H]3C[C@@H](C1)CC(c1ccc(Cl)cc1)(C3)C2 | 486 | 468 | 576
4 | CCC1(c2ccc(N)cc2)CCC(=O)NC1=O (configuration not stated) | 591 | 568 | 631
5 | CC1(C)CCC(=C(CN2CCN(CC2)C3=CC=C(C=C3)C(=O)N[S+]([O-])(=O)C4=CC(=C(N[C@H](CCN5CCOCC5)CSC6=CC=CC=C6)C=C4)[S+]([O-])(=O)C(F)(F)F)\C1)/C7=CC=C(Cl)C=C7 | 439 | 463 | 373
6 | O=C([O-])Cc1ccccc1Nc1c(Cl)cccc1Cl | 536 | 585 | 645
7 | CC(C)C(C)/C=C/C(C)C1CCC2C3=CC=C4CC(O)CCC4(C)C3CCC21C (configuration not stated) | 521 | 597 | 636
8 | O=C1N(c2ccccc2)c2ccccc2C1(Cc1ccncc1)Cc1ccncc1 | 448 | 504 | 543
9 | CC(/C=C1\SC(=S)N(CC(=O)O)C1=O)=C\c1ccccc1 | 494 | 492 | 594
10 | c1ccc2[nH]c(-c3cscn3)nc2c1 | 557 | 556 | 630
11 | Nc1nc(-c2nn(Cc3ccccc3F)c3ncccc23)ncc1C1CC1 | 538 | 544 | 533
12 | Nc1ncc(C(=O)NC2CN(C(=O)C3CC3)C2)c2ccc(-c3cccc(F)c3)nc12 | 538 | 574 | 647
13 | COc1cc2c(cc1OC)CN(CCc1ccc(NC(=O)c3cccc4c(=O)c5cccc(OC)c5[nH]c34)cc1)CC2 | 575 | 567 | 621
14 | COc1cc([C@@H]2c3cc4c(cc3[C@@H](O)C3COC(=O)C32)OCO4)cc(OC)c1O (some centres not stated) | 500 | 511 | 559
15 | O=C(O)CCNc1cc(N2CCc3ccccc3CC2)nc(-c2cccnc2)n1 | 538 | 533 | 636
16 | O=C1[C@H](CC[C@H](O)c2ccc(F)cc2)[C@@H](c2ccc(O)cc2)N1c1ccc(F)cc1 | 536 | 565 | 650
17 | Cc1cnc(Nc2cccc(CN3CCOCC3)c2)nc1Nc1cccc([S+](=O)([O-])NC(C)(C)C)c1 | 453 | 467 | 508
18 | OC(c1ccc(-c2ccc(CN3CCN(Cc4ccncc4)CC3)cc2)c(F)c1)(C(F)(F)F)C(F)(F)F | 584 | 581 | 638
19 | OC1=C(Cl)C=C(N\C2=C(\C(=O)NC2=O)C3=C(C=CC=C3)[N+]([O-])=O)C=C1 | 502 | 507 | 475
20 | CC1=C(/C=C/C(C)=C/C=C/C(C)=C/C=C/C=C(C)/C=C/C=C(C)/C=C/C2=C(C)CCCC2(C)C)C(C)(C)CCC1 | 544 | 574 | 617

Row | Structure (SMILES) | area under concentration-response curve (CU-ACC1) | area under concentration-response curve (NCI-H295R) | area under concentration-response curve (CU-ACC2)
21 | Cc1ccc(-c2ccc(C)cn2)nc1 | 405 | 384 | 342
22 | CC(C(C)N1CC(=O)NC(=O)C1)N1CC(=O)NC(=O)C1 (configuration not stated) | 488 | 538 | 605
23 | CSCC[C@@H](NC(=O)[C@@H](Cc1ccccc1)NC(=O)CNC(=O)CNC(=O)[C@@H](N)Cc1ccc(O)cc1)C(=O)O | 535 | 566 | 616
24 | CN1C(=O)CC[S+](=O)([O-])C1c1ccc(Cl)cc1 (configuration not stated) | 553 | 572 | 534
25 | O=C(Oc1ccc([N+](=O)[O-])cc1)N1CCC(C(O)(c2ccc3c(c2)OCO3)c2ccc3c(c2)OCO3)CC1 | 495 | 535 | 575
26 | CN(C)/N=N/c1nc[nH]c1C(N)=O | 514 | 481 | 547
27 | CN[C@@H](C)C(=O)N[C@@H]1C(=O)N(Cc2c(C)ccc3ccccc23)c2ccc(C#N)cc2N(C(C)=O)[C@H]1C | 501 | 549 | 474
28 | CC(C)(O)C(=O)Nc1ccc([N+](=O)[O-])c(C(F)(F)F)c1 | 505 | 537 | 602
29 | CC[S+](=O)([O-])c1ccc2oc(-c3ccc4ccccc4c3)nc2c1 | 538 | 514 | 602
30 | O=C(NCCCNc1nc(Nc2cccc(NC(=O)N3CCCC3)c2)ncc1I)c1cccs1 | 498 | 539 | 482
31 | CN\1N(C(=O)\C(=C1C)C(=O)NC2=CC=C(OC3=CC=NC4=C3C(=C[NH]4)C5=CC=CC=C5)C(=C2)F)C6=CC=C(F)C=C6 | 522 | 535 | 525
32 | CCCNC(=O)Nc1ccc(Oc2ncnc3cc(OC)c(OC)cc23)cc1Cl | 332 | 400 | 383
33 | CC(C)(C)Sc1c(CC(C)(C)C(=O)O)n(Cc2ccc(Cl)cc2)c2ccc(OCc3ccc4ccccc4n3)cc12 | 578 | 554 | 624
34 | OC[C@H]1O[C@H](C[C@@H]1O)N2\C=C(F)/C(=O)NC2=O | 516 | 497 | 584
35 | CCOC(=O)[C@H](CCc1ccccc1)N[C@H]1CCc2ccccc2N(CC(=O)O)C1=O | 492 | 520 | 592
36 | CCNC(=O)[C@H]1O[C@@H](n2cnc3c(N)nc(NCCc4ccc(CCC(=O)O)cc4)nc32)[C@H](O)[C@@H]1O | 404 | 537 | 587
37 | N[S+]([O-])(=O)C1=C(Cl)C=C2\N=C/N[S+]([O-])(=O)C2=C1 | 548 | 576 | 646
38 | COc1ccccc1[C@H](c1cccc2ccccc12)[C@@](C)(C#N)C(=O)N1CCC(c2cccc(C(F)(F)F)c2)CC1 | 566 | 587 | 665
39 | CC1(C)NC(=O)N(c2ccc([N+](=O)[O-])c(C(F)(F)F)c2)C1=O | 511 | 543 | 634
